Results as given in patent US6958352B2, “Compounds for inhibiting insulin secretion and methods related thereto” (SmithKline Beecham Corporation, priority 2002, dated 2005).
Read-outs that look alike come from different tables or passages of the source. Blank lines part the entries; values can stand above or below the compound they belong to.

Assays:
[1] = system: Pancreatic islets of Langerhans; assay: Glucose-stimulated insulin secretion (GSIS) by isolated pancreatic islets, insulin ELISA; format: cell-based, rat; conditions: concentration of 1 μM
Description: Pancreatic islets of Langerhans were isolated from adult male Sprague-Dawley rats using a standard collagenase infusion and digestion procedure as described in Example 16. Islets were cultured at 37° C. for 1-2 days in CMRL-1066 medium supplemented with 5.5 mM glucose, 10% fetal bovine serum, 100 U/ml penicillin and 100 μg/ml streptomycin, in a humidified atmosphere containing 5% CO2. Islets were manually picked and washed in Krebs Ringer Bicarbonate buffer (KRB: 134 mM NaCl, 4.7 mM KCl, 1.2 mM KH2PO4, 1.2 mM MgSO4, 1 mM CaCl2, 10 mM NaHCO3, pH 7.4) in preparation for measurement of glucose-stimulated insulin secretion (GSIS). […] Cell-conditioned media samples were then collected by centrifugation and their insulin content was determined using enzyme-linked immunosorbent assay (ELISA) kits (CrystalChem or ALPCO rat insulin ELISA) according to the kit supplier's instructions. Following treatment with a preferred compound, the concentration of insulin detected in the islet-conditioned medium was at least 1.5 times the insulin concentration detected in the medium conditioned by islets that were exposed to 8 mM glucose.
At a concentration of 1 μM, CGP37157 stimulated islet GSIS by 222 (±48) % relative to GSIS detected with 8 mM glucose. […]

[2] = system: INS-1 rat insulinoma cells; assay: Insulin secretion by INS-1 cells, insulin radioimmunoassay; format: cell-based; conditions: 8 mM glucose vs basal; FIG. 1
Description: INS-1 rat insulinoma cells were provided by Prof. Claes Wollheim, University Medical Centre, Geneva, Switzerland, and cultured at 37° C. in a humidified 5% CO2 environment in RPMI cell culture media (Gibco BRL, Gaithersburg, Md.) supplemented with 10% fetal bovine serum (Irvine Scientific, Irvine, Calif.), 2 mM L-glutamine, 100 U/ml penicillin, 100 μg/ml streptomycin, 10 mM HEPES, 1 mM sodium pyruvate and 50 μM β-mercaptoethanol (all reagents Sigma, St. Louis, Mo., unless otherwise noted).
INS-1 cells were seeded into 24-well plates containing RPMI media supplemented as described at 0.5×10^6 cells/well and cultured at 37° C., 5% CO2 for 2 days. Cells at or near confluence (0.7×10^6 cells/well) were rinsed with glucose-free KRH buffer (134 mM NaCl, 4.7 mM KCl, 1.2 mM KH2PO4, 1.2 mM MgSO4, 1.0 mM CaCl2, 10 mM HEPES-pH 7.4, 25 mM NaHCO3, 0.5% BSA), then incubated in the same buffer for 1 hr at 37° C. in a humidified 5% CO2/95% air atmosphere. […] Insulin concentrations in the supernatants were measured and normalized to cell number using an insulin-specific radioimmunoassay kit (ICN Biochemicals, Irvine, Calif.) according to the manufacturer's instructions.

[3] = system: rat pancreatic islet cells; assay: Insulin secretion by rat pancreatic islet cells (FIG. 2); format: cell-based; conditions: basal (5 mM) or supraphysiological (8 mM) glucose
[4] = molecular target: T1, mitochondrial calcium/sodium antiporter (Rattus norvegicus, UniProt Q6AXS0); assay: Inhibition of mitochondrial calcium/sodium antiporter activity (NaCl-induced mitochondrial calcium efflux, calcium green 5N fluorescence); format: cell-based; conditions: digitonin-permeabilized INS-1 cells, 20 mM NaCl
T1 sequence (Q6AXS0 1-585): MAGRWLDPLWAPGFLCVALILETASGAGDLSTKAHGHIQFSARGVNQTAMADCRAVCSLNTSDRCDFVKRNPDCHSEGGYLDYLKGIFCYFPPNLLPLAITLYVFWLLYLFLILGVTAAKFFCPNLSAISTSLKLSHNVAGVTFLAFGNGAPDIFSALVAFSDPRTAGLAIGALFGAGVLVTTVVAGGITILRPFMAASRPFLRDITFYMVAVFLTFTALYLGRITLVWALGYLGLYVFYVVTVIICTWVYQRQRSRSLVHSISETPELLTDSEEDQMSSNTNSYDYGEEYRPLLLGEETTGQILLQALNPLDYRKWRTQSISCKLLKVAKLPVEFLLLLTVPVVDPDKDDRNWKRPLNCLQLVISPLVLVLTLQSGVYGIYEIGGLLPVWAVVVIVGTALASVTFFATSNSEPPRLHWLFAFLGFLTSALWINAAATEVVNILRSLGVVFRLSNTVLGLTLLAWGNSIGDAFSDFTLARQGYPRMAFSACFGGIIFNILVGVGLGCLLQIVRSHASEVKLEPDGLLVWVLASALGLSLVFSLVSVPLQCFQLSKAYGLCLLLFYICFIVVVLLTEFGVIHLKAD
Description: INS-1 rat insulinoma cells (see Example 16) were harvested by trypsinization, washed and resuspended at 10×10^6 cells/ml in assay buffer (250 mM sucrose, 10 mM HEPES, 2.5 mM K2HPO4, 5 mM succinate, pH 7.4) containing 0.007% digitonin, 60 μM CaCl2 and 0.05 μM calcium green 5N (Molecular Probes, Inc., Eugene, Oreg.). After a five-minute calcium loading incubation, ruthenium red (1 μM; Sigma, St. Louis, Mo.) was added to block further calcium uptake by mitochondria. Cell suspensions were dispensed into 96-well plates (100 μl per well, 1×10^6 cells per well) and candidate agents (i.e., candidate mitochondrial calcium/sodium antiporter inhibitors) were added to some sets of triplicate wells at concentrations of 1, 10 or 100 μM, while other sets of wells provided appropriate control conditions (e.g., buffer and vehicle controls). Baseline fluorescence measurements were made using a multiwell plate fluorimeter (F-MAX™, Molecular Devices Corp., Sunnyvale, Calif.; or PolarStar™, BMG Labtechnologies, Inc., Durham, N.C.) according to the manufacturer's instructions. Calcium efflux from mitochondria was then induced by adding NaCl to all wells to achieve a final concentration of 20 mM, and the rate of change in fluorescence in each well was monitored […] for two minutes and quantified using software included with the plate reader.

C57BLKs-db/db mice = assay: Glucose tolerance in mutant db/db mice after oral administration; format: in vivo, mouse; conditions: 100 mg/kg orally one hour before 1 gm glucose/kg i.p.; relative to vehicle control; p<0.05
Description: This Example illustrates the effects of a representative compound on glucose tolerance in an established animal model of type II diabetes mellitus, the db/db mutant mouse. As a brief background, the recessive db mutation has been localized to murine chromosome 4, and homozygous recessive (db/db) individuals are characterized by, inter alia, obesity, hyperphagia, transient increases in plasma insulin concentrations, hyperglycemia, abnormal immune and renal functions, diabetic neuropathy and myocardial disease (see, e.g., Hummel et al., 1966 Science 153:1127; Herberg et al., 1977 Metabolism 26:59; Leiter et al., 1981 Metabolism 30:554; Guenet et al., 1982 Mouse News Letter 67:30; Guenet et al., 1984 Mouse News Letter 70:95; Bray et al., 1971 Physiol. Rev. 51:598; Bailey et al., 1989 J. Endocrinol. 123:19-24; Bray et al., 1979 Physiol. Rev. 59:719; Sima et al., 1979 Lab. Invest. 40:627; Sima et al., 1978 Acta Nettropathol. […]
16o (dissolved in vehicle: 10% (v/v) EtOH, 10% (v/v) polyethylene glycol-400, 30% (v/v) propylene glycol, 50% (v/v) H2O) was administered orally at a dosage of 100 mg/kg body weight to eight-week old mutant C57BLKs-db/db mice (Harlan Bioproducts for Science, Inc., Indianapolis, Ind.). […] Glucose concentrations in each blood sample were determined using OneTouch® glucose test strips (LifeScan, Inc., Milpitas, Calif.) according to the manufacturer's instructions. […]

[5] = Table 3, more preferred compounds, read-out: IC50 ≦ 1 μM

Structure (SMILES): O=C1CSC(c2ccccc2Cl)c2cc(Cl)ccc2N1 (centres unmarked) [CGP37157, 7-Chloro-5-(2-chlorophenyl)-1,5-dihydro-4,1-benzothiazepin-2(3H)-one]
stimulated islet GSIS relative to GSIS detected with 8 mM glucose [1]: 222 (±48) %
glucose stimulated insulin secretion by INS-1 cells [2]: enhanced glucose stimulated insulin secretion
glucose stimulated insulin secretion on rat pancreatic islet cells [3]: enhanced glucose stimulated insulin secretion

IC50 [4, 5]: ≤ 1 µM
Structure (SMILES): COc1cc(C(=O)NCCSC(c2cc(Cl)ccc2N)C2CCCCC2)cc(OC)c1OC (centres unmarked) [Compound 16o]
peak blood glucose levels after the glucose bolus (C57BLKs-db/db mice): lower peak blood glucose levels
return of blood glucose to baseline (C57BLKs-db/db mice): returned to a lower baseline more rapidly

IC50 ([4]; Table 2, preferred compounds, read-out: IC50 ≦ 10 μM): ≤ 10 µM
Structure (SMILES): COc1cc(C(=O)N2CCC(CSC(c3cc(Cl)ccc3N)C3CCCCC3)CC2)cc(OC)c1OC (centres unmarked) [Compound 41a]

IC50 [4, 5]: ≤ 1 µM
Structure (SMILES): COc1cc(C(=O)N2CCC(CSC(c3cc(F)ccc3N)C3CCCCC3)CC2)cc(OC)c1OC (centres unmarked) [Compound 41b]
